From patent US20050153938A1, “Polyphosphonate derivatives for toothpaste compositions” (Universite D'Angers, priority 2002, published 2005)

Legend:
[1] = Tests of efficiency of polyphosphonate compounds for preventing bonding of proteins; conditions: compared with diphosphonic esters, sulfonates, phosphates, carboxylates and diphosphates
Method: One particular difficulty lies in identification of compounds with a particularly efficient behaviour for the required application.
This TMADP compound has been synthesised in a single step using hydroxyethylidene biphosphonic acid (HEDP) and glycidyltrimethylammonium chloride. The reaction was done in DMSO previously conserved on a molecular sieve. After dissolution of HEDP (2 g; 14.5×10^−3 mol) at 50° C. in 30 ml of DMSO, the epoxyde (2.2 g; 14.5×10^−3 mol) is added and the temperature is increased to 110° C. for 24 hours. The DMSO is then evaporated at low pressure and the raw product is dissolved in a minimum amount of distilled water. The TMADP product is then chromatographed on a cation exchanger resin (DOWEX 50WX8-20/50 Mesh, H+form). The column is eluted with distilled water and the pure product is collected at a pH of between 3.0 and 3.5.

[2] = Model of protection of a stainless steel plate against bonding of proteins
Description: A sufficient coverage quantity of TMADP molecules on this model is […] per nm^2 of plaque surface area.

Row | SMILES | efficiency of the compound (result in words) [1] | contamination by proteins ([2]; TMADP concentration 2.86×10^−4 mol.I-1, 10 minutes incubation of the plaque (stainless steel plate)) | contamination by proteins ([2]; TMADP concentration about 1.4×10^−4 mol.I-1, stainless steel plate)
1 | C[N+](C)(C)CCCCCC(P(=O)(O)O)P(=O)(O)O [6-trimethylammoniohexyl-1,1-bisphosphonic acid] | particularly conclusive results |  | 
2 | CC(OCC(O)C[N+](C)(C)C)(P(=O)(O)O)P(=O)(O)O.[Cl-] (stereo not shown) [TMADP, 2,2-diphosphono-5-hydroxy-3-oxa-6-hexyltrimethylammonium (TMADP) chloride] | particularly conclusive results | less than 10% | about 15%
